Test results: patent publication US20050119238A1, “Compositions and methods for preventing sporadic neoplasia in colon” (priority 2002, published 2005)

Assays:
[1] = system: patients with sporadic (non-hereditary) colorectal neoplasia (adenomas); assay: Randomized, double-blind, placebo-controlled study of aspirin on occurrence of large bowel adenomas; assay type: in vivo, human
Text: Patients were recruited at nine centers in North America.
By protocol, subjects were to have a complete surveillance colonoscopy 34-40 months after the qualifying examination. At each colonoscopy, the endoscopist recorded the estimated size and location of all polyps and mucosal lesions suspicious for neoplasia as per usual clinical practice. Each lesion was removed and examined histologically at the clinical center and by the study pathologist. Polyps were classified as neoplastic (adenomatous) or non-neoplastic (e.g., hyperplastic) by the study pathologist.
The primary study outcome was the proportion of subjects with one or more colorectal adenomas detected during the period from one year after randomization through the anticipated surveillance follow-up. If a surveillance colonoscopy was not performed during the protocol time window, the last examination at least one year after randomization was taken as the follow-up exam. Pre-specified secondary outcomes were the numbers of large-bowel adenomas and “advanced lesions”: tubulovillous adenomas (25 to 75 percent villous features), villous adenomas (>75 percent villous), large adenomas ([…]), severe dysplasia, or invasive cancer. Separate analyses were also conducted for lesions in the left colorectum (descending colon, sigmoid colon, and rectum) and right colorectum (the remainder of the bowel).

[2] = Serious medical events in the randomized placebo-controlled aspirin study; conditions: for Serious Bleeding, Gastrointestinal / Serious Bleeding, Genitourinary: bleeding leading to hospitalization or surgical intervention
Description: A multi-center, randomized, double-blind, placebo-controlled study was performed that examined the effects of aspirin alone as well as folate treatment combined with aspirin on the occurrence of large bowel adenomas. The study has a 3-by-2 factorial design, investigating aspirin (placebo, 81 mg/day, or 325 mg/day) and folic acid (placebo or 1 mg/day). Patients were recruited at nine centers in North America. Eligible subjects had at least one of the following: (1) one or more histologically confirmed large-bowel adenomas removed within 3 months prior to recruitment, (2) one or more histologically confirmed large-bowel adenomas removed within 16 months before recruitment and a lifetime history of 2 or more confirmed large-bowel adenomas, or (3) a histologically confirmed large-bowel adenoma at least 1 cm in diameter removed within 16 months before recruitment. […] Eligible subjects were between 21 and 80 years old, in good health, and with anticipated colonoscopic follow-up three years after the qualifying examination. Exclusion criteria included a history of a familial colorectal cancer syndrome, invasive large-bowel cancer, malabsorption syndromes, any condition potentially worsened by supplemental aspirin or folic acid, or any condition commonly treated with aspirin, non-steroidal anti-inflammatory drugs (NSAIDs), or folate (e.g., recurrent arthritis, atherosclerotic vascular disease, folic acid deficiency).
Study coordinators at each center maintained contact with the subjects on a regular basis; interval questionnaires regarding possible side effects and medical events were completed every four months by each subject.
Subjects were regularly counseled regarding avoidance of aspirin and other NSAIDs. Lists of products containing aspirin, ibuprofen, or naproxen were provided, and acetaminophen was distributed for treatment of minor febrile illnesses and pain. Every four months, subjects received questionnaires regarding adherence to study treatment; use of medications, over-the-counter drugs and nutritional supplements; and occurrence of symptoms, illnesses, and hospitalizations.
The statistical analysis compared the aspirin treatment groups irrespective of folic acid treatment. Subjects who underwent a follow-up endoscopy at least one year following randomization were included in the analyses. The predefined primary statistical analysis was a 2 degree-of-freedom chi-squared test for a contingency table comparing treatment groups regarding risk of one or more new adenomas. Crude risk ratios and 95 percent confidence intervals were used to compare treatment groups to placebo. Adjusted risk ratios were obtained from log-linear models with age, gender, clinical center, number of lifetime adenomas, and duration of follow-up as covariates. […] Possible modification of treatment effects by baseline characteristics was assessed using interaction terms in the log-linear model. Counts of other clinical endpoints were compared using Fisher's exact test. To compare the effect of aspirin on different types of polyps, a logistic regression model was used with generalized estimating equations (Liang and Zeger Biometrika 1986:13-22) to account for the clustering of multiple endpoints within patients. […] Two-sided P-values <0.05 were considered statistically significant.

SMILES: CC(=O)Oc1ccccc1C(=O)O [aspirin, acetylsalicylic acid]
- Relative Crude Risk (95% CI) ([1]; Any adenoma, both aspirin groups combined versus placebo): 0.88 (0.77-1.02)
- incidence of adenomas ([1]; patients randomized to the aspirin groups): significantly lower
- Coronary Revascularization ([2]; 81 mg aspirin (N = 377)): 3 no of subjects
- Deaths ([2]; 81 mg aspirin (N = 377)): 3 no of subjects
- Died (percent) ([2]; 81 mg aspirin (N = 377)): 0.8%
- Hospitalization ([2]; 81 mg aspirin (N = 377)): 61 no of subjects
- Myocardial Infarction ([2]; 81 mg aspirin (N = 377)): 2 no of subjects
- Non-Colorectal Cancer ([2]; 81 mg aspirin (N = 377)): 14 no of subjects
- Stroke ([2]; 81 mg aspirin (N = 377)): 2 no of subjects
- Serious Bleeding, Gastrointestinal ([2]; 81 mg aspirin (N = 377)): 2 no of subjects
- Serious Bleeding, Genitourinary ([2]; 81 mg aspirin (N = 377)): 6 no of subjects
- Coronary Revascularization ([2]; 325 mg aspirin (N = 372)): 5 no of subjects
- Deaths ([2]; 325 mg aspirin (N = 372)): 4 no of subjects
- Died (percent) ([2]; 325 mg aspirin (N = 372)): 1.1%
- Hospitalization ([2]; 325 mg aspirin (N = 372)): 57 no of subjects
- Myocardial Infarction ([2]; 325 mg aspirin (N = 372)): 4 no of subjects
- Non-Colorectal Cancer ([2]; 325 mg aspirin (N = 372)): 9 no of subjects
- Stroke ([2]; 325 mg aspirin (N = 372)): 5 no of subjects
- Serious Bleeding, Gastrointestinal ([2]; 325 mg aspirin (N = 372)): 4 no of subjects
- Serious Bleeding, Genitourinary ([2]; 325 mg aspirin (N = 372)): 2 no of subjects
- Hospitalization, cancer and myocardial infarction, occurrence ([2]; aspirin groups versus placebo, differences compatible with chance): somewhat more frequently
- patients diagnosed with a stroke (all non-fatal) ([2]; both aspirin groups together, none on placebo): Seven
